Measurements published in patent US10626115B2, “Fused pyrimidinone and triazinone derivatives containing bridged nitrogen, their process of preparation and their therapeutic uses as antifungal and/or antiparasitic agents” (UNIVERSITE DE NANTES, priority 2015, dated 2020).
In brackets after ≈: the same amount, converted by molar mass.

Legend:
[1] = tested on: promastigote stage of a Leishmania mexicana strain; assay: Anti-Trypanosomatidae activity, promastigote stage, spectrofluorimetric microdilution; format: cell-based; details: for IC50: Leishmania mexicana, promastigote stage, 50% of control growth, read-out: L. mexicana (IC50 μM)
Procedure: Compounds were evaluated on the promastigote stage of a Leishmania mexicana strain using a spectrofluorimetric microdilution method. Inhibitory concentration 50 (IC50) was the concentration that inhibited 50% of the control growth.

[2] = tested on: A. fumigatus itraconazole-resistant strain ASFU77 (erg11 mutation); assay: Antifungal susceptibility, spectrofluorimetric microdilution, ASFU77; format: cell-based, Aspergillus fumigatus; details: for MIC: Aspergillus fumigatus, read-out: MIC values ASFU77
Procedure: (§1) Eleven strains of A. fumigatus with various itraconazole susceptibility were used: • Five susceptible strains: ASFU7, ASFU35A, ASFU38A, ASFU76 and ASFU78. • Six itraconazole-resistant strains: ASFU77 (erg11 mutation), ASFU13, ASFU17, ASFU19, ASFU20, ASFU23.
(§2) Antifungal susceptibility was evaluated with a spectrofluorimetric microdilution method. MIC was the concentration that was able to inhibit 80% of fluorescence measured in the control wells.

[3] = tested on: fluconazole-susceptible C. albicans strain: CAAL93; assay: Antifungal susceptibility, spectrofluorimetric microdilution, CAAL93; format: cell-based; details: Candida albicans, read-out: MIC values CAAL93
Procedure: (§3) Eight strains of Candida spp. with various azoles-susceptibilities were used: • One fluconazole-susceptible C. albicans strain: CAAL93 • Two fluconazole-resistant C. albicans strains: CAAL111 (efflux pump) and CAAL117 (erg11 mutations+voriconazole-resistant) • five fluconazole-resistant Candida non albicans strains: C. krusei (CAKR7, CAKR8), C. glabrata (CAGL2), C. parapsilosis s.l. (CAPA1, CAPA2).
(§4) Antifungal susceptibility was evaluated with a spectrofluorimetric microdilution method.

[4] = tested on: A. fumigatus itraconazole-resistant strain ASFU17; assay: Antifungal susceptibility, spectrofluorimetric microdilution, ASFU17; format: cell-based, Aspergillus fumigatus; details: Aspergillus fumigatus, read-out: MIC values ASFU17
Procedure: as §1, §2

[5] = tested on: A. fumigatus susceptible strain ASFU7; assay: Antifungal susceptibility, spectrofluorimetric microdilution, ASFU7; format: cell-based, Aspergillus fumigatus; details: Aspergillus fumigatus, read-out: MIC values ASFU7
Procedure: as §1, §2

[6] = tested on: A. fumigatus susceptible strain ASFU78; assay: Antifungal susceptibility, spectrofluorimetric microdilution, ASFU78; format: cell-based, Aspergillus fumigatus; details: Aspergillus fumigatus, read-out: MIC values ASFU78
Procedure: as §1, §2

[7] = tested on: A. fumigatus itraconazole-resistant strain ASFU13; assay: Antifungal susceptibility, spectrofluorimetric microdilution, ASFU13; format: cell-based, Aspergillus fumigatus
Procedure: as §1, §2

[8] = tested on: A. fumigatus susceptible strain ASFU76; assay: Antifungal susceptibility, spectrofluorimetric microdilution, ASFU76; format: cell-based, Aspergillus fumigatus; details: Aspergillus fumigatus, read-out: MIC values ASFU76
Procedure: as §1, §2

[9] = tested on: A. fumigatus itraconazole-resistant strain ASFU23; assay: Antifungal susceptibility, spectrofluorimetric microdilution, ASFU23; format: cell-based, Aspergillus fumigatus
Procedure: as §1, §2

[10] = tested on: A. fumigatus susceptible strain ASFU38A; assay: Antifungal susceptibility, spectrofluorimetric microdilution, ASFU38A; format: cell-based, Aspergillus fumigatus; details: Aspergillus fumigatus, read-out: MIC values ASFU38A
Procedure: as §1, §2

[11] = tested on: fluconazole-resistant C. krusei (CAKR8); assay: microbe, parasite or virus in culture; format: cell-based; details: Pichia kudriavzevii, read-out: MIC values CAKR8
Procedure: as §3, §4

[12] = tested on: fluconazole-resistant C. glabrata (CAGL2); assay: microbe, parasite or virus in culture; format: cell-based; details: Nakaseomyces glabratus, read-out: MIC values CAGL2
Procedure: as §3, §4

[13] = tested on: fluconazole-resistant C. krusei (CAKR7); assay: microbe, parasite or virus in culture; format: cell-based; details: Pichia kudriavzevii, read-out: MIC values CAKR7
Procedure: as §3, §4

[14] = tested on: fluconazole-resistant C. albicans strain CAAL111 (efflux pump); assay: microbe, parasite or virus in culture; format: cell-based; details: Candida albicans, read-out: MIC values CAAL111
Procedure: as §3, §4

[15] = tested on: fluconazole-resistant C. albicans strain CAAL117 (erg11 mutations+voriconazole-resistant); assay: microbe, parasite or virus in culture; format: cell-based
Procedure: as §3, §4

[16] = tested on: A. fumigatus itraconazole-resistant strain ASFU20; assay: Antifungal susceptibility, spectrofluorimetric microdilution, ASFU20; format: cell-based, Aspergillus fumigatus
Procedure: as §1, §2

[17] = tested on: A. fumigatus itraconazole-resistant strain ASFU19; assay: Antifungal susceptibility, spectrofluorimetric microdilution, ASFU19; format: cell-based, Aspergillus fumigatus; details: Aspergillus fumigatus, read-out: MIC values ASFU19
Procedure: as §1, §2

[18] = tested on: A. fumigatus susceptible strain ASFU35A; assay: Antifungal susceptibility, spectrofluorimetric microdilution, ASFU35A; format: cell-based, Aspergillus fumigatus; details: Aspergillus fumigatus, read-out: MIC values ASFU35A
Procedure: as §1, §2

For `C[C@@H](n1ccc2nc(-c3ccc(F)cc3)cn2c1=O)[C@](O)(Cn1cncn1)c1ccc(F)cc1F` [Compound 30, 6-[(1R,2R)-2-(2,4-Difluorophenyl)-2-hydroxy-1-methyl-3-(1H-1,2,4-triazol-1-yl)propyl]-2-(4-fluorophenyl)imidazo[1,2-c]pyrimidin-5-one], the “effectiveness against the promastigote stage of L. Mexicana, in words” value [1] was “effective”, the IC50 [1] was 8.1 ± 1.6 µM and the melting point was 114 to 115 °C.

For `C[C@@H](n1ncc2cc(-c3ccc(Cl)cc3)cn2c1=O)[C@](O)(Cn1cncn1)c1ccc(F)cc1F` [Compound 48, 7-(4-Chlorophenyl)-3-[(1R,2R)-2-(2,4-difluorophenyl)-2-hydroxy-1-methyl-3-(1,2,4-triazol-1-yl)propyl]-3H-pyrrolo[1,2-d][1,2,4]triazin-4-one], the “MIC values against ITRA-resistant isolate carrying M220T mutation (ASFU77), in words” value (shortened to “MIC values”) [2] was “in the micromolar range”, the MIC [2] was 9.27 ± 1.05 µg/mL (≈ 18.7 µM) and the MIC [3] was under 0.001 µg/mL. The MIC [4] was over 49 µg/mL, the MIC [5] was 6.07 ± 0.05 µg/mL (≈ 12.2 µM) and the MIC [6] was 6.26 ± 0.73 µg/mL (≈ 12.6 µM). For the same molecule, the “activity against ITRA-resistant isolate ASFU13, in words” value [7] was “active”, the MIC ([7]; Aspergillus fumigatus, read-out: MIC values ASFU13) was 2.53 µg/mL (≈ 5.09 µM) and the MIC [8] was 6.21 ± 0.18 µg/mL (≈ 12.5 µM). For the same molecule, the “activity against ITRA-resistant isolate ASFU23, in words” value [9] was “active”, the MIC ([9]; Aspergillus fumigatus, read-out: MIC values ASFU23) was 2.48 µg/mL (≈ 4.99 µM) and the MIC [10] was 6.64 ± 1.1 µg/mL (≈ 13.4 µM). For the same molecule, the MIC [11] was 0.079 µg/mL (≈ 0.159 µM), the MIC [12] was 0.061 ± 0.008 µg/mL (≈ 0.123 µM) and the MIC [13] was 0.019 ± 0.001 µg/mL (≈ 0.0382 µM). The MIC [14] was 0.018 ± 0.005 µg/mL (≈ 0.0362 µM), the MIC ([15]; Candida albicans, read-out: MIC values CAAL117) was 0.014 ± 0.001 µg/mL (≈ 0.0282 µM) and the “fold more active than voriconazole against CAAL117” value ([15]; compared with voriconazole) was 100 fold. For the same molecule, the melting point was 204 to 205 °C, the “activity against ITRA-resistant isolate ASFU20, in words” value [16] was “active” and the MIC ([16]; Aspergillus fumigatus, read-out: MIC values ASFU20) was 2.51 µg/mL (≈ 5.05 µM). The MIC [17] was over 49 µg/mL and the MIC [18] was 6.11 ± 0.85 µg/mL (≈ 12.3 µM).

`C[C@@H](n1ncc2cc(Br)cn2c1=O)[C@](O)(Cn1cncn1)c1ccc(F)cc1F` [Compound 45, 7-Bromo-3-[(1R,2R)-2-(2,4-difluorophenyl)-2-hydroxy-1-methyl-3-(1,2,4-triazol-1-yl)propyl]-3H-pyrrolo[1,2-d][1,2,4]triazin-4-one] gave a melting point of 142 to 143 °C.

In the case of `C[C@@H](n1ccc2nccn2c1=O)[C@](O)(Cn1cncn1)c1ccc(F)cc1F` [Compound 27, 6-[(1R,2R)-2-(2,4-Difluorophenyl)-2-hydroxy-1-methyl-3-(1H-1,2,4-triazol-1-yl)propyl]imidazo[1,2-c]pyrimidin-5-one], the “MIC values” value [2] is reported as “in the micromolar range”, the MIC [2] is reported as 6.47 ± 0.03 µg/mL (≈ 16.7 µM) and the MIC [3] is reported as 0.014 ± 0.001 µg/mL (≈ 0.0362 µM). For the same molecule, the MIC [5] was 7.29 ± 0.22 µg/mL (≈ 18.9 µM), the MIC [6] was 6.03 ± 0.95 µg/mL (≈ 15.6 µM) and the MIC [8] was 6.76 ± 0.1 µg/mL (≈ 17.5 µM). It also gave an MIC [10] of 23 ± 21.1 µg/mL (≈ 59.6 µM), an IC50 [1] of over 100 µM and a melting point of 156 to 157 °C. For the same molecule, the MIC [18] was 6.96 ± 1.49 µg/mL (≈ 18 µM).

With `C[C@@H](n1ccc2nc(-c3ccc(Cl)cc3)cn2c1=O)[C@](O)(Cn1cncn1)c1ccc(F)cc1F` [Compound 31, 6-[(1R,2R)-2-(2,4-Difluorophenyl)-2-hydroxy-1-methyl-3-(1H-1,2,4-triazol-1-yl)propyl]-2-(4-chlorophenyl)imidazo[1,2-c]pyrimidin-5-one] the “MIC values” value [2] was “in the micromolar range”, the MIC [2] was 5.99 ± 0.33 µg/mL (≈ 12.1 µM) and the MIC [3] was under 0.001 µg/mL. For the same molecule, the MIC [5] was 5.04 µg/mL (≈ 10.1 µM), the MIC [6] was 5.72 ± 0.39 µg/mL (≈ 11.5 µM) and the MIC [8] was 5.7 ± 0.51 µg/mL (≈ 11.5 µM). The MIC [10] was 5.59 ± 0.15 µg/mL (≈ 11.2 µM), the melting point was 158 to 159 °C and the MIC [18] was 5.81 ± 0.5 µg/mL (≈ 11.7 µM).

`C[C@@H](n1ccc2nc(C#N)cn2c1=O)[C@](O)(Cn1cncn1)c1ccc(F)cc1F` [Compound 38, 6-[(1R,2R)-2-(2,4-Difluorophenyl)-2-hydroxy-1-methyl-3-(1H-1,2,4-triazol-1-yl)propyl]-5-oxo-imidazo[1,2-c]pyrimidine-2-carbonitrile] gave a melting point of 132 to 133 °C.

For `C[C@@H](n1ccc2nc(-c3ccc(Br)cc3)cn2c1=O)[C@](O)(Cn1cncn1)c1ccc(F)cc1F` [Compound 32, 6-[(1R,2R)-2-(2,4-Difluorophenyl)-2-hydroxy-1-methyl-3-(1H-1,2,4-triazol-1-yl)propyl]-2-(4-bromophenyl)imidazo[1,2-c]pyrimidin-5-one], the melting point was 161 to 162 °C.
